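Step 1: Grow cells in 96-well plates. Step 2: Expose to compound for 48 hours at 5 concentrations. Step 3: Interpolate endpoints linearly; if unreached, use highest concentration. TGI denotes the concentration required for complete inhibition of growth.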
Assays:
Assay in all cases: NCI-60 cell line screen, 48 h
SK-MEL-2 melanoma = test system: SK-MEL-2 melanoma
SK-MEL-28 melanoma = test system: SK-MEL-28 melanoma
ACHN renal = test system: ACHN renal
OVCAR-3 ovarian = test system: OVCAR-3 ovarian
UO-31 renal = test system: UO-31 renal
786-0 renal = test system: 786-0 renal
IGROV1 ovarian = test system: IGROV1 ovarian
PC-3 prostate = test system: PC-3 prostate
SW-620 colon = test system: SW-620 colon
LOX IMVI melanoma = test system: LOX IMVI melanoma
MCF7 breast = test system: MCF7 breast
MOLT-4 leukemia = test system: MOLT-4 leukemia
SN12C renal = test system: SN12C renal
TK-10 renal = test system: TK-10 renal
U251 CNS = test system: U251 CNS
CAKI-1 renal = test system: CAKI-1 renal
OVCAR-8 ovarian = test system: OVCAR-8 ovarian
HT29 colon = test system: HT29 colon
HL-60(TB) leukemia = test system: HL-60(TB) leukemia
NCI-H23 lung = test system: NCI-H23 lung
MDA-MB-435 = test system: MDA-MB-435
COLO 205 colon = test system: COLO 205 colon
T-47D breast = test system: T-47D breast
RPMI-8226 leukemia = test system: RPMI-8226 leukemia
SF-539 CNS = test system: SF-539 CNS
MALME-3M melanoma = test system: MALME-3M melanoma
KM12 colon = test system: KM12 colon
EKVX NSCLC = test system: EKVX NSCLC
SF-268 CNS = test system: SF-268 CNS
MDA-N = test system: MDA-N
HCT-15 colon = test system: HCT-15 colon
SK-OV-3 ovarian = test system: SK-OV-3 ovarian
UACC-62 melanoma = test system: UACC-62 melanoma
SF-295 CNS = test system: SF-295 CNS
M14 melanoma = test system: M14 melanoma
K-562 leukemia = test system: K-562 leukemia
A498 renal = test system: A498 renal
CCRF-CEM leukemia = test system: CCRF-CEM leukemia
MDA-MB-231 breast = test system: MDA-MB-231 breast
SK-MEL-5 melanoma = test system: SK-MEL-5 melanoma
SNB-75 CNS = test system: SNB-75 CNS
SNB-19 CNS = test system: SNB-19 CNS
NCI/ADR-RES ovarian = test system: NCI/ADR-RES ovarian
HCT-116 colon = test system: HCT-116 colon
DU-145 prostate = test system: DU-145 prostate
NCI-H226 lung = test system: NCI-H226 lung
BT-549 breast = test system: BT-549 breast
UACC-257 melanoma = test system: UACC-257 melanoma
RXF 393 renal = test system: RXF 393 renal
HS 578T breast = test system: HS 578T breast
HOP-92 NSCLC = test system: HOP-92 NSCLC
HCC-2998 colon = test system: HCC-2998 colon
SR leukemia = test system: SR leukemia
OVCAR-4 ovarian = test system: OVCAR-4 ovarian
OVCAR-5 ovarian = test system: OVCAR-5 ovarian
NCI-H460 lung = test system: NCI-H460 lung
A549 NSCLC = test system: A549 NSCLC
HOP-62 NSCLC = test system: HOP-62 NSCLC

Measured: TGI

O=C(c1cccs1)N(C(=O)N1CCCCC1)c1ccccc1
88.7 µM: SNB-75 CNS
not listed: HOP-92 NSCLC | HCC-2998 colon | SR leukemia | OVCAR-4 ovarian | OVCAR-5 ovarian | NCI-H460 lung | A549 NSCLC | HOP-62 NSCLC
> 100 µM: all other assays above

O=S1(=O)OCCOS(=O)(=O)C1S(=O)(=O)c1cccc2ccccc12
57.1 µM: HCT-116 colon
not listed: TK-10 renal | T-47D breast | SF-539 CNS | SF-268 CNS | SK-OV-3 ovarian | UACC-62 melanoma | A498 renal | SNB-75 CNS | SNB-19 CNS | NCI-H226 lung | RXF 393 renal | HS 578T breast
> 100 µM: all other assays above
